Assay results taken from patent US10730884B2, “Substituted indole compound derivatives as dengue viral replication inhibitors” (Janssen Pharmaceuticals, Inc., priority 2016, dated 2020).
Read-outs that look alike come from different tables or passages of the source.

How the values were obtained:
Vero cells = conditions: African green monkey
DENV-2 16681 strain = test: DENV-2 antiviral assay (eGFP-labeled virus, Vero cells); format: cell-based, Dengue virus; conditions: for EC50: DENV-2 16681 eGFP, Vero cells, MOI 0.5, 3 days; for SI: SI=CC50/EC50, DENV-2 antiviral assay
Method: The antiviral activity of all the compounds of the invention was tested against the DENV-2 16681 strain which was labeled with enhanced green fluorescent protein (eGPF). The culture medium consists of minimal essential medium supplemented with 2% of heat-inactivated fetal calf serum, 0.04% gentamycin (50 mg/mL) and 2 mM of L-glutamine. Vero cells, obtained from ECACC, were suspended in culture medium and 25 μL was added to 384-well plates (2500 cells/well), which already contain the antiviral compounds. Typically, these plates contain a 5-fold serial dilution of 9 dilution steps of the test compound at 200 times the final concentration in 100% DMSO (200 nL). […] Finally, each plate contains wells which are assigned as virus controls (containing cells and virus in the absence of compound), cell controls (containing cells in the absence of virus and compound) and medium controls (containing medium in the absence of cells, virus and compounds). To the wells assigned as medium control, 25 μL of culture medium was added instead of Vero cells. Once the cells were added to the plates, the plates were incubated for 30 minutes at room temperature to allow the cells to distribute evenly within the wells. Next, the plates were incubated in a fully humidified incubator (37° C., 5% CO2) until the next day. Then, DENV-2 strain 16681, labeled with eGFP, was added at a multiplicity of infection (MOI) of 0.5. Therefore, 15 μL of virus suspension was added to all the wells containing test compound and to the wells assigned as virus control. In parallel, 15 μL of culture medium was added to the medium and cell controls. Next, the plates were incubated for 3 days in a fully humidified incubator (37° C., 5% CO2). At the day of the read out, the eGFP fluorescence was measured using an automated fluorescence microscope at 488 nm (blue laser). Using an in-house LIMS system, inhibition dose response curves for each compound were calculated and the half maximal effective concentration (EC50) was determined. Therefore, the percent inhibition (I) for every test concentration is calculated using the following formula: I=100*([…])/(SVC−SCC); ST, SCC and SVC are the amount of eGFP signal in the test compound, cell control and virus control wells, respectively. The EC50 represents the concentration of a compound at which the virus replication is inhibited with 50%, as measured by a 50% reduction of the eGFP fluorescent intensity compared to the virus control. The EC50 is calculated using linear interpolation (Table 1).

in vitro = conditions: African green monkey
DENV-3 strain H87 = test: Tetravalent RT-qPCR assay, serotype 3; format: cell-based, Dengue virus; conditions: for EC50: RT-qPCR serotype 3 H87, Protocol A, Vero cells, day 3, read-out: EC50; for SI: RT-qPCR serotype 3 H87
Method: (§1) The antiviral activity of the compounds of the invention was tested against DENV-1 strain TC974#666 (NCPV), DENV-2 strain 16681, DENV-3 strain H87 (NCPV) and DENV-4 strain H241 (NCPV) in a RT-qPCR assay. Therefore, Vero cells were infected with either DENV-1, or -2, or -3, or -4 in the presence or absence of test compounds. At day 3 post-infection, the cells were lysed and cell lysates were used to prepare cDNA of both a viral target (the 3′UTR of DENV; Table 2) and a cellular reference gene (β-actin, Table 2). Subsequently, a duplex real time PCR was performed on a Lightcycler480 instrument. The generated Cp value is inversely proportional to the amount of RNA expression of these targets. Inhibition of DENV replication by a test compound result in a shift of Cp's for the 3′UTR gene. On the other hand, if a test compound is toxic to the cells, a similar effect on β-actin expression will be observed. The comparative ΔΔCp method is used to calculate EC50, which is based on the relative gene expression of the target gene (3′UTR) normalized with the cellular housekeeping gene (β-actin). In addition, CC50 values are determined based on the Cp values acquired for the housekeeping gene β-actin.
(§2) The culture medium consisted of minimal essential medium supplemented with 2% of heat-inactivated fetal calf serum, 0.04% gentamycin (50 mg/mL) and 2 mM of L-glutamine. Vero cells, obtained from ECACC, were suspended in culture medium and 75 μL/well was added in 96-well plates (10000 cells/well), which already contain the antiviral compounds. […] In addition, each plate contains wells which are assigned as virus controls (containing cells and virus in the absence of compound) and cell controls (containing cells in the absence of virus and compound). Once the cells were added in the plates, the plates were incubated in a fully humidified incubator (37° C., 5% CO2) until the next day. Dengue viruses serotype-1, 2, 3 and 4 were diluted in order to obtain a Cp of ˜22-24 in the assay. Therefore, 25 μL of virus suspension was added to all the wells containing test compound and to the wells assigned as virus control. In parallel, 25 μL of culture medium was added to the cell controls. Next, the plates were incubated for 3 days in a fully humidified incubator (37° C., 5% CO2). After 3 days, the supernatant was removed from the wells and the cells were washed twice with ice-cold PBS (˜100 μL). The cell pellets within the 96-well plates were stored at −80° C. for at least 1 day. Next, RNA was extracted using the Cells-to-CT™ lysis kit, according to the manufacturer's guideline (Life Technologies). The cell lysates can be stored at −80° C. or immediately used in the reverse transcription step.
(§3) In preparation of the reverse transcription step, mix A (table 3A) was prepared and 7.57 μL/well was dispensed in a 96-well plate. After addition of 5 μL of the cell lysates, a five minute denaturation step at 75° C. was performed (table 3B). Afterwards, 7.43 μL of mix B was added (table 3C) and the reverse transcription step was initiated (table 3D) to generate cDNA.
(§4) Finally, a RT-qPCR mix was prepared, mix C (table 4A), and 22.02 μL/well was dispensed in 96-well LightCycler qPCR plates to which 3 μL of cDNA was added and the qPCR was performed according to the conditions in table 4B on a LightCycler 480.
(§5) Using the LightCycler software and an in-house LIMS system, dose response curves for each compound were calculated and the half maximal effective concentration (EC50) and the half maximal cytotoxic concentration (CC50) were determined (Tables 5-8).

DENV-4 strain H241 = test: Tetravalent RT-qPCR assay, serotype 4; format: cell-based, Dengue virus; conditions: for EC50: RT-qPCR serotype 4 H241, Protocol A, Vero cells, day 3; for SI: RT-qPCR serotype 4 H241
Method: as §1, §2, §3, §4, §5

DENV-1 strain TC974#666 = test: Tetravalent RT-qPCR assay, serotype 1; format: cell-based, Dengue virus; conditions: for EC50: RT-qPCR serotype 1 TC974#666, Protocol A, Vero cells, day 3, read-out: EC50; for SI: RT-qPCR serotype 1 TC974#666
Method: as §1, §2, §3, §4, §5

DENV-2 strain 16681 = test: Tetravalent RT-qPCR assay, serotype 2; format: cell-based, Dengue virus; conditions: for EC50: RT-qPCR serotype 2 16681, Protocol A, Vero cells, day 3; for SI: RT-qPCR serotype 2 16681
Method: as §1, §2, §3, §4, §5

[1] = Dengue virus, DENV3, Vero, 72 h
[2] = Dengue virus, DENV4, Vero, 72 h
[3] = Dengue virus, DENV1, Vero, 72 h
[4] = Dengue virus, DENV2, Vero, 72 h

Compound	EC50 (DENV-2 16681 strain) [nM]	SI (DENV-2 16681 strain)	CC50 (in vitro) [nM]	EC50 (DENV-3 strain H87; [1]) [nM]	EC50 (DENV-4 strain H241; [2]) [nM]	EC50 (DENV-1 strain TC974#666; [3]) [nM]	other results
[2H]C(Nc1cc(OC)cc(OCCO)c1)(C(=O)c1c[nH]c2cc(F)ccc12)c1ccc(Cl)cc1OC (single isomer, unassigned) [Compound 13B-D]	170	54					CC50 (Vero cells): 9600 nM
COc1cc(NC(C(=O)c2c[nH]c3cc(F)c(C)cc23)c2ccc(Cl)cc2OC)cc(OCCO)c1 (single isomer, unassigned) [Compound 9A]	52	70	3700				
COc1cc(NC(C(=O)c2c[nH]c3cc4c(cc23)CCO4)c2ccc(Cl)cc2OC)cc(OCCO)c1 (single isomer, unassigned) [Compound 10A]	110	44	4900				
COc1cc(NC(C(=O)c2c[nH]c3c(C)cc(Cl)cc23)c2ccc(F)cc2OC)cc(OCCO)c1 (single isomer, unassigned) [Compound 1B]	72	148					CC50 (Vero cells): 11000 nM
COc1cc(NC(C(=O)c2c[nH]c3c4c(ccc23)OCC4)c2ccc(Cl)cc2OC)cc(OCCO)c1 (single isomer, unassigned) [Compound 11A]	0.88	7460	6000	28	270	8.5	SI (DENV-3 strain H87): 359; SI (DENV-4 strain H241): >9.1; SI (DENV-1 strain TC974#666): 1350; EC50 (DENV-2 strain 16681; [4]): 1.9 nM; SI (DENV-2 strain 16681): 2490
COc1cc(NC(C(=O)c2c[nH]c3cc(F)ccc23)c2ccc(Cl)cc2OC)cc(OCCOP(=O)(O)O)c1 (single isomer, unassigned) [13A-P^b]	0.48		11000	42	250	4.2	EC50 (DENV-3 strain H87; listed as 13A-P^c): 28 nM; EC50 (DENV-4 strain H241; listed as 13A-P^c): 230 nM; EC50 (DENV-1 strain TC974#666; listed as 13A-P^c): 4.4 nM; EC50 (DENV-2 strain 16681): 0.97 nM; EC50 (DENV-2 strain 16681; listed as 13A-P^c): 0.44 nM; EC50 (DENV-2 16681 strain; listed as 13A-P^c): 0.94 nM
COc1cc(NC(C(=O)c2c[nH]c3cc(OC(F)(F)F)c(C)cc23)c2ccc(F)cc2OC)cc(OCCO)c1 (single isomer, unassigned) [Compound 4A]	630	5.4	3400				
CCOc1cc2[nH]cc(C(=O)C(Nc3cc(OC)cc(OCCO)c3)c3ccc(F)cc3OC)c2cc1C (racemic) [Compound 6, 1-(6-ethoxy-5-methyl-1H-indol-3-yl)-2-(4-fluoro-2-methoxyphenyl)-2-((3-(2-hydroxyethoxy)-5-methoxyphenyl)amino)ethanone]		3160	5700				EC50 (DENV-2 16681 strain; [4]): 1.8 nM
[2H]C(Nc1cc(OC)cc(OCCO)c1)(C(=O)c1c[nH]c2cc(F)ccc12)c1ccc(Cl)cc1OC (single isomer, unassigned) [Compound 13A-D]	0.46	24300	11000	36	210	5.2	SI (DENV-3 strain H87): >96; SI (DENV-4 strain H241): 24; SI (DENV-1 strain TC974#666): 3070; EC50 (DENV-2 strain 16681; [4]): 0.61 nM; SI (DENV-2 strain 16681): >8520
COc1cc(NC(C(=O)c2c[nH]c3cc(OC(F)(F)F)c(C)cc23)c2ccc(F)cc2OC)cc(OCCO)c1 (racemic) [Compound 4, 2-(4-fluoro-2-methoxyphenyl)-2-((3-(2-hydroxyethoxy)-5-methoxyphenyl)amino)-1-(5-methyl-6-(trifluoromethoxy)-1H-indol-3-yl)ethanone]		359	3900				EC50 (DENV-2 16681 strain; [4]): 11 nM
COc1cc(NC(C(=O)c2c[nH]c3cc(F)ccc23)c2ccc(Cl)cc2OC)cc(OCCOP(=O)(O)O)c1 (racemic) [Compound 13-P, 2-(3-((1-(4-chloro-2-methoxyphenyl)-2-(6-fluoro-1H-indol-3-yl)-2-oxoethyl)amino)-5-methoxyphenoxy)ethyl dihydrogen phosphate]		5210	11000				EC50 (DENV-2 16681 strain; [4]): 2.1 nM
COc1cc(NC(C(=O)c2c[nH]c3cc4c(cc23)CCO4)c2ccc(F)cc2OC)cc(OCCO)c1 (single isomer, unassigned) [Compound 7A]	1	13700	10000	63	380	7.8	SI (DENV-3 strain H87): 76; SI (DENV-4 strain H241): 12; SI (DENV-1 strain TC974#666): 713; EC50 (DENV-2 strain 16681; [4]): 1.6 nM; SI (DENV-2 strain 16681): 5930
COc1cc(NC(C(=O)c2c[nH]c3c4c(ccc23)OCC4)c2ccc(F)cc2OC)cc(OCCO)c1 (single isomer, unassigned) [Compound 8A]	4.3	4240	12000	150	710	20	SI (DENV-3 strain H87): 64; SI (DENV-4 strain H241): 20; SI (DENV-1 strain TC974#666): 560; EC50 (DENV-2 strain 16681; [4]): 8.1 nM; SI (DENV-2 strain 16681): 1530
COc1cc(NC(C(=O)c2c[nH]c3cc(OC)c(C)c(F)c23)c2ccc(Cl)cc2OC)cc(OCCO)c1 (single isomer, unassigned) [Compound 12A]	6	1200	5600				
